From US20190083398A1 (ZheJiang Chinese Medical University, priority 2016, published 2019)

Assay: Solubility (descriptive)
Type: physicochemical
Conditions: 0.9% NaCl release medium
From the text: The samples at each sampling point are filtered through a 0.45 μm microporous film and injected for analysis.

CC(C)[C@@H](C)/C=C/[C@@H](C)[C@H]1CC[C@H]2C3=CC=C4C[C@@H](O)CC[C@]4(C)[C@H]3CC[C@]12C [ergosterol]
solubility in the release medium: very low
